Where a SMILES comes first, the peptide text is derived from it. Bridges are numbered along the chain shown (N, C = ends). Roman numbers before positions name the chains, in order. Triazole bridges read from a SMILES are 1,4-linked. Where no end group is shown, it is not given here. Side-chain parts run from the residue outwards. [ ]: non-standard residue; d: D form. The star is where a group is joined. X2 = CN1C(=C/C=C/C=C/C2=[N+](CCCCCC(=O)*)c3ccc(S(=O)(=O)[O-])cc3C2(C)C)C(C)(C)c2cc(S(=O)(=O)O)ccc21; X1 = CN1C(=CC=CC=CC2=[N+](CCCCCC(=O)*)c3ccc(S(=O)(=O)[O-])cc3C2(C)C)C(C)(C)c2cc(S(=O)(=O)O)ccc21; Lys(N3) = [N-]=[N+]=NCCCC[C@H](N)C(=O)O; Cit = NC(=O)NCCC[C@H](N)C(=O)O; d(hCys) = N[C@H](CCS)C(=O)O; PEG3 = NCCOCCOCCOCCC(=O)O; Pra = C#CC[C@H](N)C(=O)O
Columns and labels:
[1] = target: T1, NanoLuc-MDM2 in HEK293 cells (Homo sapiens, UniProt Q00987); assay: Intracellular Cy5-PMIγ/NanoLuc-MDM2 BRET, cells without CMKLR1; type: cell-based; settings: cells without CMKLR1, 72 h
T1 construct: host or cells: HEK293 and HEK293_CMKLR1-eYFP
Experimental: (§1) 4 Intracellular bioluminescence resonance energy transfer (BRET) between NanoLuc-MDM2 and Cy5-labeled PMIγ in living cells. (A) Peptides were incubated on HEK293 and HEK293_CMKLR1-eYFP cells for 72 h before BRET was measured. To evaluate the receptor-specific effect, ΔBRET was calculated by subtracting netBRET of cells without CMKLR from netBRET from cells with CMKLR1. Mean ± SEM from three independent experiments performed in duplicate. […] (B) Calculated ΔBRET values after different incubation times of peptides on the cells. (C, D) Same as panels (A) and (B), but peptide uptake was competed by coincubation with 30 μM peptide 1 (N3-cC9). […]
HEK293 and stably transfected HEK293_CMKLR1-eYFP cells were seeded at 15,000 cells per well into poly-ᴅ-lysine coated 96-well plates (white Nunc MicroWell, Thermo). […] After 10 min incubation, luminescence was measured in a Spark multimode plate reader (Tecan), and BRET ratio was calculated by […]
dividing the Cy5-signal (670±30 nm) by the NanoLuc signal (450±20 nm). netBRET was calculated by subtracting the BRET ratio from cells which were incubated without peptide. To calculate the CMKLR1-specific effect, ΔBRET was calculated by subtracting the netBRET value obtained in cells without CMKLR1 from netBRET obtained in cells with CMKLR1. After the initial readout, a kinetic BRET displacement was performed with the same cells. […]

HEK293_CMKLR1-eYFP cells = assay: Resazurin based cell viability assay, peptides; settings: 72 h incubation
Experimental: page 3: […] 15% FCS. Calcium flux assay Calcium flux assay was performed with cells expressing CMKLR1 and the chimeric G protein […]. The stably transfected COS-7_CMKLR1-eYFP_ […] were seeded at 25,000 cells per well into poly-ᴅ-lysine-coated 96-well plates (black μCLEAR, Greiner). The next day, cells were incubated with […] (Sigma), 20 mM 4-(2-hydroxyethyl)-1-piperazineethanesulfonic acid (HEPES, Sigma) in Hanks' Balanced […] This solution was replaced by assay buffer, and basal Ca2+ signal (λex = 485 nm, λem = 525 nm) was measured for 20 s with a Flexstation 3 plate reader (Molecular Devices). Peptide dilutions were added, and the Ca2+ response was measured for 40 s. The maximum signal over baseline was calculated and normalized to peptide 1 (N3-cC9). Non-linear regression was performed using Prism 10 (GraphPad). Experiments were performed in technical duplicates and at least twice. Cell viability assay HEK293 and HEK293_CMKLR1-eYFP cells were seeded at 15,000 cells per well into poly-ᴅ-lysine coated 96-well plates (black μCLEAR, Greiner). […] Cells were then washed and a resazurin-based cell viability assay was performed. […] (1:1) + 15% FBS without phenol red was added to the cells. […] using the fluorescence of resorufin (λex = 550 nm, λem = 595 nm). Data was normalized to cells incubated without peptide (100%) and cells treated with ethanol for 3 min before resazurin addition (0%). Experiments were performed in technical triplicates and at least twice. Fluorescence microscopy Peptide internalization was evaluated by fluorescence microscopy. […] the cells and incubated for 6 h. […] All shown microscopy images are representative of at least two independent experiments. […] Resazurin based cell viability assay of HEK293 and HEK293_CMKLR1-eYFP cells after 72 h incubation with the p53/MDM2 inhibitor Nutlin-3a. […] 100 50 2Cy 3Cy 4Cy 0 -8 -7 -6 -5 -4 […]], log Figure S4. Resazurin based cell viability assay of HEK293_CMKLR1-eYFP cells after 72 h incubation with the PMIγ peptides discussed in this work. Mean ± SEM from two independent experiments performed in triplicates. 15 […]

[2] = target: T2, NanoLuc-MDM2 in HEK293_CMKLR1-eYFP cells (Homo sapiens, UniProt Q00987); assay: Intracellular Cy5-PMIγ/NanoLuc-MDM2 BRET, cells with CMKLR1; type: cell-based; settings: for displacement from MDM2 by 10 μM nutlin-3a (kinetic BRET): 72 h internalization; for BRET between NanoLuc-MDM2 and Cy5-labeled peptide: CMKLR1-expressing cells, 1 or 10 μM; for receptor-specific BRET under uptake competition: coincubation with 30 μM unlabeled peptide 1
T2 construct: host or cells: HEK293 and HEK293_CMKLR1-eYFP
Experimental: as §1, with “(N3-cC9). (E, F) Displacement of PMIγ peptides from MDM2 after 72 h internalization in a kinetic BRET measurement. After 3 min, 10 μM of the small molecule MDM2 antagonist Nutlin-3a was added and the loss of NanoLuc-MDM2/Cy5-PMIγ BRET was observed. Mean (bold line) ± SEM (dotted lines) from three independent experiments is shown.” for “(N3-cC9).”
Intracellular Cy5-PMIγ/NanoLuc-MDM2 bioluminescence resonance energy transfer […]
HEK293 and stably transfected HEK293_CMKLR1-eYFP cells were seeded at 15,000 cells per well into poly-ᴅ-lysine coated 96-well plates (white Nunc MicroWell, Thermo). The next day, cells in each well were transfected with 0.1 µg Transfection Carrier DNA (Promega) and 0.001 µg NanoLuc-MDM2 fusion vector (Promega) using Lipofectamine 3000 (Invitrogen) according to manufactures instructions. Cells were incubated overnight, washed, allowed to recover for 4 h, washed again and dilutions of the Cy5-labeled peptides were added to the cells and incubated for 24,48 or 72 h. For uptake competition experiments, 30 µM of the unlabeled peptide 1 (N3-cC9) were additionally added to each well. After the incubation, excess peptide was washed away thoroughly, and cells were incubated for 4 h before the cell culture medium was replaced by 50 µl Fluorobrite DMEM with Nano-Glo Live Cell Reagent (Promega). After 10 min incubation, luminescence was measured in a Spark multimode plate reader (Tecan), and BRET ratio was calculated by […]
dividing the Cy5-signal (670±30 nm) by the NanoLuc signal (450±20 nm). netBRET was calculated by subtracting the BRET ratio from cells which were incubated without peptide. To calculate the CMKLR1-specific effect, ΔBRET was calculated by subtracting the netBRET value obtained in cells without CMKLR1 from netBRET obtained in cells with CMKLR1. After the initial readout, a kinetic BRET displacement was performed with the same cells. For this, luminescence was measured every 22 s. After 3 min, 10 µM of the small molecule MDM2 antagonist Nutlin-3a (Sigma) was added to the cells and BRET was measured for another 7 min. Experiments were performed in technical duplicates and three independent times. Non-linear regression and statistical analysis were performed using Prism 10 (GraphPad).
Analogous to the intracellular Cy5-PMIγ/NanoLuc-MDM2 BRET experiment, HEK293 and HEK293_CMKLR1-eYFP cells were seeded and transfected with 0.09 µg Transfection Carrier DNA, 0.01 µg […]
were then incubated with dilutions of unlabeled PMIγ -peptides for 72 h or with Nutlin-3a for 24 h. During the last 30 min of the incubation, HaloTag TMR Ligand (Promega) was added to the cells to fluorescently label the p53-HaloTag fusion proteins in the cells. Cells were then washed thoroughly, incubated for 4 h in full cell culture medium without peptides, and the cell culture medium was then replaced by 50 µl Fluorobrite DMEM with Nano-Glo Live Cell Reagent. After 10 min incubation, luminescence was measured, and BRET ratio was calculated by dividing the TMR-signal (600±50 nm) by the NanoLuc signal (450±20 nm). netBRET was calculated and normalized to cells without peptide (100%) and cells which were not label ed with HaloTag TMR Ligand (0%). Experiments were performed in technical duplicates and at least twice. Non-linear regression and statistical analysis were performed using Prism 10 (GraphPad).

T2 sequence (Q00987 whole entry): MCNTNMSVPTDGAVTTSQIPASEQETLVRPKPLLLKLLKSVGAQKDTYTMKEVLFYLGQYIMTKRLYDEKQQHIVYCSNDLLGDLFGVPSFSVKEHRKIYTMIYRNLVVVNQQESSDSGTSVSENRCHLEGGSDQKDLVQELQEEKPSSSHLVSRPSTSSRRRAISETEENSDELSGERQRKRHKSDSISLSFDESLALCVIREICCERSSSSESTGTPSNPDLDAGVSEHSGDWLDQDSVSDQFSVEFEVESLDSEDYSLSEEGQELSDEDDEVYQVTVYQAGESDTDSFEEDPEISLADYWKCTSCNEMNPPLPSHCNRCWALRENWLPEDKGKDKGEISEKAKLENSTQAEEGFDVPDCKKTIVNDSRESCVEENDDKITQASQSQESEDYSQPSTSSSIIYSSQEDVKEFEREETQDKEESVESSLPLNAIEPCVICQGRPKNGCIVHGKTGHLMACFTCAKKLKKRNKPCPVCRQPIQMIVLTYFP
T1 sequence (Q00987 whole entry): as above

Question: With `CC(=O)N[C@@H](CCCCn1cc(C[C@H](NC(=O)CCOCCOCCOCCNC(=O)[C@H](CCCNC(N)=O)NC(=O)[C@@H](NC(=O)[C@H](CCC(=O)O)NC(=O)CNC(=O)CNC(=O)[C@@H](CCCNC(=N)N)NC(=O)[C@@H](CC(C)C)NC(=O)[C@@H](CC(C)C)NC(=O)[C@@H](C)NC(=O)[C@@H](CCC(=O)O)NC(=O)[C@@H](Cc2ccccc2)NC(=O)[C@@H](C)NC(=O)[C@@H](CC(C)C)NC(=O)[C@H]2CCCN2C(=O)[C@@H](Cc2c[nH]c3ccccc23)NC(=O)[C@@H](Cc2c[nH]c3ccccc23)NC(=O)[C@@H](CC(=O)O)NC(=O)CCOCCOCCOCCNC(=O)CCCCC[N+]2=C(/C=C/C=C/C=C3N(C)c4ccc(S(=O)(=O)O)cc4C3(C)C)C(C)(C)c3cc(S(=O)(=O)[O-])ccc32)C(C)C)C(N)=O)nn1)C(=O)N[C@@H](Cc1ccc(O)cc1)C(=O)N[C@@H](Cc1ccccc1)C(=O)N1CCC[C@H]1C(=O)N[C@@H]1CCSSC[C@@H](C(=O)O)NC(=O)[C@H](Cc2ccccc2)NC(=O)[C@H](C)NC(=O)[C@H](Cc2ccccc2)NC(=O)[C@H](CCC(N)=O)NC1=O` [2Cy] (I: {X2-PEG3}-[dD][dW][dW][dP][dL][dA][dF][dE][dA][dL][dL][dR]GGEV[Cit][PEG3][Pra]-NH2 / II: Ac-[Lys(N3)]YFP[d(hCys)]QFAFC-OH; triazole I:19-II:1; disulfide II:5-II:10) as the molecule, how does the “BRET between NanoLuc-MDM2 and Cy5-labeled peptide” value [1] read?
Answer: The value was “only a minor signal”.

Question: What about the cytotoxicity (HEK293_CMKLR1-eYFP cells) of the same molecule?
Answer: The cytotoxicity was “no signs of cytotoxicity”.

Question: And the “displacement from MDM2 by 10 μM nutlin-3a (kinetic BRET)” value ([2]; 1 μM extracellular peptide)?
Answer: The value was “seen only in CMKLR1-expressing cells”.

Question: And the “BRET between NanoLuc-MDM2 and Cy5-labeled peptide” value ([2]; 72 h)?
Answer: Its value is “significantly elevated BRET”.

Question: What about the “receptor-specific BRET under uptake competition” value [2] of the same molecule?
Answer: Its value is “almost no receptor-specific BRET was detected”.

Question: What does the source list for “I: GSVSHHHHHHGGHHHH[PEG3][dK]([PEG3-X1])[dD][dW][dW][dP][dL][dA][dF][dE][dA][dL][dL][dR]GEV[Cit][PEG3][Pra]-NH2 / II: Ac-[Lys(N3)]YFP[d(hCys)]QFAFC-OH (triazole I:36-II:1; disulfide II:5-II:10) [3Cy]”?
Answer: BRET between NanoLuc-MDM2 and Cy5-labeled peptide [1]: strong BRET at 10 μM; cytotoxicity (HEK293_CMKLR1-eYFP cells): tolerated slightly worse at concentrations above 1 μM; loss of BRET after 10 μM nutlin-3a, compared with 2Cy ([2]; 1 μM extracellular peptide, 72 h): larger loss of BRET; displacement from MDM2 by 10 μM nutlin-3a (kinetic BRET) ([2]; 1 μM extracellular peptide): seen only in CMKLR1-expressing cells; ΔBRET (netBRET with CMKLR1 minus without) ([2]; 24, 48 and 72 h): slightly higher signal compared to 2Cy; BRET between NanoLuc-MDM2 and Cy5-labeled peptide ([2]; 72 h): significantly elevated BRET; receptor-specific BRET under uptake competition [2]: almost no receptor-specific BRET was detected

Source: publication PMC12814185, “Receptor-Mediated Shuttling of a D‑Amino Acid Peptide Achieves High Nanomolar Cytosolic Concentrations” (Journal of the American Chemical Society, 2025)
